From PMC5429603, “Discovery and characterization of verinurad, a potent and specific inhibitor of URAT1 for the treatment of hyperuricemia and gout” (Scientific Reports, 2017)
Numbering of substitutions follows the chain as printed. Read-outs that look alike come from different tables or passages of the source. One block for each compound: values may come before it.

Columns and labels:
human URAT1 [1] = target: T1, human URAT1 (Homo sapiens, UniProt Q96S37); test: URAT1 binding assay with 3H-verinurad, human URAT1 membranes; conditions: for mode of inhibition of 3H-verinurad binding: human URAT1 membranes
T1 sequence (Q96S37 1-553): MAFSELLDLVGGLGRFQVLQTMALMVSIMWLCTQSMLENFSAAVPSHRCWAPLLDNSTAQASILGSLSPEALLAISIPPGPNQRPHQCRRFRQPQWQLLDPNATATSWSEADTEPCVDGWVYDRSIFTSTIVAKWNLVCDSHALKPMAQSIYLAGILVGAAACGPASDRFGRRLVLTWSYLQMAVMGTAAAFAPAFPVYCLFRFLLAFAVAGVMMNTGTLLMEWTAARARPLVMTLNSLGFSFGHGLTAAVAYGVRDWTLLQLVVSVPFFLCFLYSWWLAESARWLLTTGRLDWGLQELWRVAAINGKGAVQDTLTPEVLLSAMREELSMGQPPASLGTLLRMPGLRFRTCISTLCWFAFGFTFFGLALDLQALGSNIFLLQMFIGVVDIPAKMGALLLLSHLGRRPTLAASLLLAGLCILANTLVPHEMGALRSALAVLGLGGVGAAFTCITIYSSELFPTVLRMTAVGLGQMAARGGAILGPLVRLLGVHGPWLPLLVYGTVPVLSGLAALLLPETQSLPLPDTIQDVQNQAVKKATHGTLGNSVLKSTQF
Description: Membranes were prepared from cells transfected on the previous day with URAT1 expression constructs. Cells (5–10 × 10^8) were harvested in 1 ml ice-cold binding buffer (25 mM HEPES pH 7.3, 125 mM sodium gluconate) containing complete, EDTA-free protease inhibitor cocktail (Sigma). Cells were lysed with 100 strokes in a 2 ml dounce homogenizer using a tight-fitting “B” stem. Lysates were transferred to 1.5 mL Eppendorf tubes and centrifuged at 250 rcf for 5 minutes at 2 °C, and supernatants were transferred to fresh tubes and centrifuged again at 18,000 rcf for 20 minutes at 2 °C. The pellets (membrane fractions) were resuspended in 1 ml of ice-cold binding buffer containing protease inhibitors and frozen at −80 °C. Protein was measured using the Bio-Rad protein assay dye reagent concentrate.
Samples were then rapidly filtered through 25 mm glass fiber/1.2 µM PES 96-well filter plates (Corning FiltrEX 3510), and washed once with 200 µl ice-cold binding buffer. The plates were then subjected to scintillation counting. All samples were assayed in triplicate.
GraphPad Prism software was used for non-linear regression and statistical analyses. […] For kinetic measurements (K m and B max values), the “one site – specific binding” equation was used, after subtracting transport or binding measurements from control transfected cells. Statistical significance was assessed using Student’s unpaired t-tests.

human URAT1 h-F241Y = target: T2, human URAT1 h-F241Y (Homo sapiens, UniProt Q96S37, F241Y); test: URAT1 activity assay, h-F241Y; assay type: cell-based
T2 construct: expressed in transfected cells; host or cells: HEK-293T
T2 sequence (Q96S37 1-553 F241Y): T1 sequence (Q96S37 1-553) with F241Y
Source text: (§1) Human URAT1 (GenBank BC053348.1, Homo sapiens SLC22A12), rat URAT1 (NCBI NM_001034943.1, Rattus norvegicus Slc22a12) and human OAT4 (NCBI NM_018484.2, Homo sapiens SLC22A11) genes were purchased from Origene Technologies, Inc. and subcloned into pCMV6/neo using NotI. Where indicated, controls transfections used pCMV6/neo. Mutants were produced by site-directed mutagenesis using the QuikChange Lightning Multi Site-Directed Mutagenesis Kit (Agilent Technologies). […] Mutagenic primer sequences are provided in ref. [15] and mutagenic primer sequences for previously unreported mutants shown in Supplementary Table 1. All constructs used in this study were untagged. Human OAT1 was purchased from Fisher Scientific (catalog # MHS1010–7508183 in pSPORT6, NCBI NM_153276.2, Homo sapiens SLC22A6).
(§2) HEK-293T cells were maintained in DMEM/high glucose/L-glutamine/HEPES supplemented with 1 mM sodium pyruvate (Life Technologies) and 10% FBS (PAA Laboratories) at 37 °C in 5% CO2. To express URAT1, OAT4 or OAT1, plasmids were reverse transfected into HEK-293T cells. DNA (10 µg) was mixed with 30 µl of DreamFect Gold (Boca Scientific) in 2 ml OptiMem (Life Technologies). After 20 minutes, 18 ml of media containing 2 × 10^7 cells in suspension was added and mixed, and 200 µl per well were plated onto white clear-bottomed poly-D-lysine coated 96-well plates (BD Biosciences). The cells were assayed the following day.
(§3) URAT1 and OAT4 activity assays were performed in assay buffer consisting of 25 mM MES pH 5.5 (from a 1 M MES solution [Sigma] adjusted to pH 5.5 with sodium hydroxide), 125 mM sodium gluconate, 4.8 mM potassium gluconate, 1.2 mM monobasic potassium phosphate, 1.2 mM magnesium sulfate, 1.3 mM calcium gluconate and 5.6 mM glucose. URAT1 inhibitors were serially diluted into assay buffer and added to the cells for 5 minutes prior to addition of substrate. URAT1-expressing cells were incubated with 100 µM ^14C-uric acid for 10 minutes and OAT4-expressing cells were incubated with 20 µM carboxyfluorescein (Life Technologies, Inc.) for 5 minutes. Cells were then washed three times in 25 mM MES pH 5.5/125 mM sodium gluconate, and solubilized in Ultima Gold (Perkin Elmer) prior to liquid scintillation counting. Each treatment was measured in triplicate.

human URAT1 h-R477K = target: T3, human URAT1 h-R477K (Homo sapiens, UniProt Q96S37, R477K); test: URAT1 activity assay, h-R477K; assay type: cell-based
T3 construct: expressed in transfected cells; host or cells: HEK-293T
T3 sequence (Q96S37 1-553 R477K): T1 sequence (Q96S37 1-553) with R477K
Source text: as §1, §2, §3

human URAT1 h-F449Y = target: T4, human URAT1 h-F449Y (Homo sapiens, UniProt Q96S37, F449Y); test: URAT1 activity assay, h-F449Y; assay type: cell-based
T4 construct: expressed in transfected cells; host or cells: HEK-293T
T4 sequence (Q96S37 1-553 F449Y): T1 sequence (Q96S37 1-553) with F449Y
Source text: as §1, §2, §3

human URAT1 [2] = target: T1, human URAT1; test: URAT1 activity assay (14C-uric acid transport), human URAT1; assay type: cell-based; design: host or cells: HEK-293T; conditions: human URAT1 wild type in HEK-293T; 100 µM 14C-uric acid, pH 5.5; read-out: IC50, inhibition of transport activity
Description: as §2, §3

human URAT1 [3] = target: T1, human URAT1; test: Uric acid transport kinetics, human URAT1; assay type: cell-based; design: host or cells: HEK-293T; conditions: human URAT1 vs rat URAT1
Description: as §2
as §3, with “Cells were then washed three times in 25 mM MES pH 5.5/125 mM sodium gluconate, and solubilized in Ultima Gold (Perkin Elmer) prior to liquid scintillation counting.” left out

rat URAT1-Y365F [4] = target: T5, rat URAT1-Y365F (Rattus norvegicus, UniProt Q3ZAV1, Y365F); test: Uric acid transport kinetics, rat URAT1-Y365F; assay type: cell-based
T5 construct: expressed in transfected cells; host or cells: HEK-293T
T5 sequence (Q3ZAV1 1-553 Y365F): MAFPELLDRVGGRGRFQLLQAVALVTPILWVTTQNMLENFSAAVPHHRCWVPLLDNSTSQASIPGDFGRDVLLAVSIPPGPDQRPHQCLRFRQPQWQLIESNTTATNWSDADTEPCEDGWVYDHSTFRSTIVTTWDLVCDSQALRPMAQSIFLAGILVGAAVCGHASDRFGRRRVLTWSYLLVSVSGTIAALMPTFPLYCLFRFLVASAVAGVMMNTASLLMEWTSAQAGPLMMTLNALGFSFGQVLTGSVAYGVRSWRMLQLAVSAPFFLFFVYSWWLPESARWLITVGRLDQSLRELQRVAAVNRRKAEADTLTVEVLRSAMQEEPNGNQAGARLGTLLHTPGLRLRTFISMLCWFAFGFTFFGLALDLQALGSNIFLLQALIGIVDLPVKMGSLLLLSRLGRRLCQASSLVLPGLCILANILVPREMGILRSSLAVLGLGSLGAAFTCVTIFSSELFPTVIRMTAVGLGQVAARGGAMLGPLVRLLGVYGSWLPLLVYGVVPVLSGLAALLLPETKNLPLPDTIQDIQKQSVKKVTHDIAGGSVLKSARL

Rat URAT1-N35S = target: T6, Rat URAT1-N35S (Rattus norvegicus, UniProt Q3ZAV1, N35S); test: Uric acid transport kinetics, rat URAT1-N35S; assay type: cell-based
T6 construct: expressed in transfected cells; host or cells: HEK-293T

Rat URAT1-N35S/Y365F = target: T7, Rat URAT1-N35S/Y365F (Rattus norvegicus, UniProt Q3ZAV1, N35S/Y365F); test: Uric acid transport kinetics, rat URAT1-N35S/Y365F; assay type: cell-based
T7 construct: expressed in transfected cells; host or cells: HEK-293T
Description: as §2
as §3, with “Cells were then washed three times in 25 mM MES pH 5.5/125 mM sodium gluconate, and solubilized in Ultima Gold (Perkin Elmer) prior to liquid scintillation counting.” left out

rat URAT1 = target: T8, rat URAT1 (Rattus norvegicus, UniProt Q3ZAV1); design: method as in Tan et al., 2016; conditions: cited from earlier work
T8 construct: host or cells: HEK-293T
T8 sequence (Q3ZAV1 1-553): T5 sequence (Q3ZAV1 1-553 Y365F) with F365Y

rat URAT1-Y365F [5] = target: T5, rat URAT1-Y365F; design: method as in Tan et al., 2016; conditions: ref Tan et al., 2016; cited from earlier work
human URAT1 [6] = target: T1, human URAT1; design: host or cells: HEK-293T; method as in Tan et al., 2016; conditions: cited from earlier work
[7] = ref Tan et al., 2016, listed as urate

T6 sequence (Q3ZAV1 whole entry N35S): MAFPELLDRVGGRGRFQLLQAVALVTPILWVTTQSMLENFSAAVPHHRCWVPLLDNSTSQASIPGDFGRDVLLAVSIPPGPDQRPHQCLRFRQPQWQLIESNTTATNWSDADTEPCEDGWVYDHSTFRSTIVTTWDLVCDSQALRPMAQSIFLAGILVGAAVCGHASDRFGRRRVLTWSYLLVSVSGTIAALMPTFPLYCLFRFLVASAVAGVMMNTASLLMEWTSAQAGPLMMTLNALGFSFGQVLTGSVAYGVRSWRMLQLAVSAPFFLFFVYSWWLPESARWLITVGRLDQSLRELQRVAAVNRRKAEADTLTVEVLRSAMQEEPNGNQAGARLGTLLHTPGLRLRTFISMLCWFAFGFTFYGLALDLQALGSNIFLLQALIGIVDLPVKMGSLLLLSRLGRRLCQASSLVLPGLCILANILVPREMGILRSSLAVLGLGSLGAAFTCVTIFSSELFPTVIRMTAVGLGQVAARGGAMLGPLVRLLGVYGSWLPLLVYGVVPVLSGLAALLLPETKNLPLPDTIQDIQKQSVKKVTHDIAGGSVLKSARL
T7 sequence (Q3ZAV1 whole entry N35S/Y365F): as the sequence (Q3ZAV1 whole entry N35S) above, with Y365F counted along it

mode of inhibition of 3H-verinurad binding (human URAT1 [1]): competitive mode of inhibition
SMILES: CCc1oc2ccccc2c1C(=O)c1cc(Br)c(O)c(Br)c1 [benzbromarone, Benzbromarone]

mode of inhibition of 3H-verinurad binding (human URAT1 [1]): competitive mode of inhibition
SMILES: CCCN(CCC)S(=O)(=O)c1ccc(C(=O)O)cc1 [probenecid]

fold reduced affinity compared to human URAT1 (human URAT1 h-F241Y; h-F241Y): 7 fold
IC50 (human URAT1 h-F241Y; h-F241Y binding site point mutant): 23 µM
fold increased affinity compared to human URAT1 (human URAT1 h-R477K; h-R477K): 2 fold
IC50 (human URAT1 h-R477K; h-R477K binding site point mutant): 2 µM
fold reduced affinity compared to human URAT1 (human URAT1 h-F449Y; h-F449Y): 3 fold
IC50 (human URAT1 h-F449Y; h-F449Y binding site point mutant): 9.7 µM
IC50 (human URAT1 [1]): 8.6 µM
Ki (human URAT1 [1]): 52 µM
mode of inhibition of 3H-verinurad binding (human URAT1 [1]): competitive mode of inhibition
IC50 (human URAT1 [2]): 3.4 µM
SMILES: O=C1C(CC[S+]([O-])c2ccccc2)C(=O)N(c2ccccc2)N1c1ccccc1 (centres unmarked) [sulfinpyrazone, reference compound]

fold higher affinity for urate of human URAT1 relative to rat URAT1 (human URAT1 [3]): 7 fold
fold increase in urate affinity over rat URAT1 (rat URAT1-Y365F [4]): 1.5 fold
K m (µM), uric acid transport affinity (Rat URAT1-N35S; Rat URAT1-N35S): 697 ± 93 µM
urate affinity phenotype relative to rat URAT1 (Rat URAT1-N35S; rat URAT1-N35S): no phenotype
K m (µM), uric acid transport affinity (Rat URAT1-N35S/Y365F; Rat URAT1-N35S/Y365F): 222 ± 16 µM
fold increase in urate affinity relative to rat URAT1 (Rat URAT1-N35S/Y365F; rat URAT1-N35S/Y365F): ~4 fold
SMILES: O=c1[nH]c(=O)c2[nH]c(=O)[nH]c2[nH]1 [uric acid]
K m (µM), uric acid transport affinity (rat URAT1; [7]): 857 µM
K m (µM), uric acid transport affinity (rat URAT1; ref Tan et al., 2016): 857 ± 6 µM
K m (µM), uric acid transport affinity (rat URAT1-Y365F [5]): 560 ± 28 µM
K m (µM), uric acid transport affinity (human URAT1 [6]; [7]): 122 µM
K m (µM), uric acid transport affinity (human URAT1 [6]; ref Tan et al., 2016): 122 ± 3 µM
